For five compounds, IC50 results are on record in patent US20240002377A1, “PYRROLOPYRIDINE COMPOUND AND APPLICATION THEREOF” (MEDSHINE DISCOVERY INC., priority 2020, published 2024).

The target in the test is BTK^C481S (Homo sapiens (Human), UniProt Q06187, C481S). Put plainly: BTK enzyme activity assay (33P-ATP filter-binding). It is filed as biochemical. As to conditions: 200 μM ATP; 20 min pre-incubation, 2 h reaction at room temperature; radiometric filter-binding. The protocol: Assay Example 1: BTK Enzyme Activity Assay
Sequence of BTK^C481S (Q06187 whole entry C481S): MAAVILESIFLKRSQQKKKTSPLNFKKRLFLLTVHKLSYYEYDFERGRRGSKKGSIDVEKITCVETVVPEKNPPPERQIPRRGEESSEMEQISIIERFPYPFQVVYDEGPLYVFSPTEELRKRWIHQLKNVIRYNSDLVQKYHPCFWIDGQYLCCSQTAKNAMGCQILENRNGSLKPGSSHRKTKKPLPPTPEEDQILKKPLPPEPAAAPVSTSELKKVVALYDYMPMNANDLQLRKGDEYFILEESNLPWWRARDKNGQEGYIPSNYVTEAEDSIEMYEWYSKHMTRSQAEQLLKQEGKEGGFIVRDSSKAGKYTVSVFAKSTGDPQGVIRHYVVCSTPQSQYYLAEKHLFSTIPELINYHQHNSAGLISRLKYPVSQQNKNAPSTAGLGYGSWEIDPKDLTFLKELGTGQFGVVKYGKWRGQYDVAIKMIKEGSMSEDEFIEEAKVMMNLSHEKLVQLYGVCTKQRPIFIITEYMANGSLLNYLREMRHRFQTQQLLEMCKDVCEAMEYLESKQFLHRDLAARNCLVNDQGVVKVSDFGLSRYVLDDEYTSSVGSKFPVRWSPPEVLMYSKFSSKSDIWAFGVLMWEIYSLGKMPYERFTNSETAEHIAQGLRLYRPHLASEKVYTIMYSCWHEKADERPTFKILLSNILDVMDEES
The specific assay process of BTK enzyme activity assay is as follows: Buffer solution: 20 mM hydroxyethyl piperazine ethanesulfonic acid (Hepes) (pH 7.5), 10 mM magnesium chloride, 1 mM ethylenebis(oxyethylenenitrilo)tetraacetic acid (EGTA), 0.02% polyoxyethylene dodecyl ether (Brij35), 0.02 mg/mL BSA, 0.1 mM sodium vanadate (Na3VO4), 2 mM dithiothreitol (DTT), 1% DMSO, 200 μM adenosine triphosphate (ATP). • 1. The substrate was prepared in freshly prepared reaction buffer; • 2. The required cofactor was added to the above-mentioned substrate solution; • 3. The kinase BTK^C481S sis was added to the above-mentioned substrate solution and mix well; • 4. The compound dissolved in DMSO was added to the kinase reaction mixture through Echo550 (Acoustic technology; nanolite range), and the mixture was incubated at room temperature for 20 minutes; • 5. ^33P-ATP (specific activity of radioactivity is 10 μCi/μL) was added to the reaction mixture to initiate the reaction; • 6. The mixture was incubated at room temperature for 2 hours; • 7. The radioactivity was detected by filter-binding method; • 8. Kinase activity data represented the percentage of remaining kinase activity in the assay sample compared to the vehicle (dimethyl sulfoxide) reaction.
In general, IC50 refers to the concentration at which inhibition is half-maximal. `N#Cc1cnc2[nH]cc(C(=O)c3ccc(Oc4cccc(F)c4)cc3Cl)c2c1N[C@@H]1CC[C@@H](CO)OC1` [Compound 1] came in with an IC50 of 58.9 nM. Under `N#Cc1cnc2[nH]cc(C(=O)c3ccc(Oc4ccccc4F)cc3Cl)c2c1N[C@@H]1CC[C@@H](CO)OC1` [Compound 2] stands 11.7 nM. Under `CO[C@@H]1C[C@@H](CO)OC[C@@H]1Nc1c(C#N)cnc2[nH]cc(C(=O)c3ccc(Oc4ccccc4)cc3Cl)c12` [Compound 3] stands 74.2 nM; under `N#Cc1cnc2[nH]cc(C(=O)c3ccc(Oc4ccccc4)cc3Cl)c2c1N[C@@H]1CC[C@@H](CO)OC1` [Compound 4], 7.4 nM; under `O=C(c1ccc(Oc2ccccc2)cc1Cl)c1c[nH]c2ncc(F)c(N[C@@H]3CC[C@@H](CO)OC3)c12` [Compound 5], 8.9 nM.
